According to patent US20250235543A1, “MODIFIED PROTEINS AND PROTEIN DEGRADERS” (Cullgen (Shanghai), Inc., priority 2021, published 2025):

System: P300/CBP
Experiment: P300/CBP cellular protein degradation
Assay type: cell-based
Method: Cultured cells were washed with cold PBS once and lysed in cold RIPA buffer supplemented with protease inhibitors and phosphatase inhibitors (Beyotime Biotechnology). The solutions were then incubated at 4° C. for 30 min with gentle agitation to fully lysed cells. Cell lysates were centrifuged at 13,000 rpm for 10 min at 4° C. and pellets were discarded. Total protein concentrations in the lysates were determined following BCA assays (Beyotime Biotechnology). Cell lysates were mixed with Laemmli loading buffer and heated at 99° C. for 5 min. Proteins were resolved on SDS-PAGE and visualized using Western ECL Substrate kits on a ChemiDoc MP Imaging system (Bio-Rad). Protein bands were quantitated using the Image Lab software provided by Bio-Rad.

Structure (SMILES)	P300/CBP Degradation (100 nM)
CC(=O)N1CCc2c(c(N3CCCc4cc(-c5cnn(C)c5)c(C(F)F)cc43)nn2C2CCN(C(=O)CCCCCCCCCCC(=O)Nc3ccccc3C(=O)Nc3nc(C)c([N+](=O)[O-])s3)CC2)C1 [CPD-207, 2-(12-(4-(5-Acetyl-3-(7-(difluoromethyl)-6-(1-methyl-1H-pyrazol-4-yl)-3,4-dihydroquinolin-1(2H)-yl)-4,5,6,7-tetrahydro-1H-pyrazolo[4,3-c]pyridin-1-yl)piperidin-1-yl)-12-oxododecanamido)-N-(4-methyl-5-nitrothiazol-2-yl)benzamide]	D (degradation activity < 30%)
CC(=O)N1CCc2c(c(N3CCCc4cc(-c5cnn(C)c5)c(C(F)F)cc43)nn2C2CCN(CC(=O)NCCCCCC(=O)Nc3ccccc3C(=O)Nc3nc(C)c([N+](=O)[O-])s3)CC2)C1 [CPD-213, 2-(6-(2-(4-(5-Acetyl-3-(7-(difluoromethyl)-6-(1-methyl-1H-pyrazol-4-yl)-3,4-dihydroquinolin-1(2H)-yl)-4,5,6,7-tetrahydro-1H-pyrazolo[4,3-c]pyridin-1-yl)piperidin-1-yl)acetamido)hexanamido)-N-(4-methyl-5-nitrothiazol-2-yl)benzamide]	D (degradation activity < 30%)
CC(=O)N1CCc2c(c(N3CCCc4cc(-c5cnn(C)c5)c(C(F)F)cc43)nn2C2CCN(CC(=O)NCCCCCCCCC(=O)Nc3ccccc3C(=O)Nc3nc(C)c([N+](=O)[O-])s3)CC2)C1 [CPD-216, 2-(9-(2-(4-(5-Acetyl-3-(7-(difluoromethyl)-6-(1-methyl-1H-pyrazol-4-yl)-3,4-dihydroquinolin-1(2H)-yl)-4,5,6,7-tetrahydro-1H-pyrazolo[4,3-c]pyridin-1-yl)piperidin-1-yl)acetamido)nonanamido)-N-(4-methyl-5-nitrothiazol-2-yl)benzamide]	D (degradation activity < 30%)
CC(=O)N1CCc2c(c(N3CCCc4cc(-c5cnn(C)c5)c(C(F)F)cc43)nn2C2CCN(C(=O)CCCCCCCCCC(=O)Nc3ccccc3C(=O)Nc3nc(C)c([N+](=O)[O-])s3)CC2)C1 [CPD-206, 2-(11-(4-(5-Acetyl-3-(7-(difluoromethyl)-6-(1-methyl-1H-pyrazol-4-yl)-3,4-dihydroquinolin-1(2H)-yl)-4,5,6,7-tetrahydro-1H-pyrazolo[4,3-c]pyridin-1-yl)piperidin-1-yl)-11-oxoundecanamido)-N-(4-methyl-5-nitrothiazol-2-yl)benzamide]	D (degradation activity < 30%)
CC(=O)N1CCc2c(c(N3CCCc4cc(-c5cnn(C)c5)c(C(F)F)cc43)nn2C2CCN(CC(=O)NCCCCC(=O)Nc3ccccc3C(=O)Nc3nc(C)c([N+](=O)[O-])s3)CC2)C1 [CPD-212, 2-(5-(2-(4-(5-Acetyl-3-(7-(difluoromethyl)-6-(1-methyl-1H-pyrazol-4-yl)-3,4-dihydroquinolin-1(2H)-yl)-4,5,6,7-tetrahydro-1H-pyrazolo[4,3-c]pyridin-1-yl)piperidin-1-yl)acetamido)pentanamido)-N-(4-methyl-5-nitrothiazol-2-yl)benzamide]	D (degradation activity < 30%)
CC(=O)N1CCc2c(c(N3CCCc4cc(-c5cnn(C)c5)c(C(F)F)cc43)nn2C2CCN(CC(=O)NCCCCCCNc3ccc(C(=O)Nc4ncc(C)s4)c(C)c3)CC2)C1 [CPD-193, 4-((6-(2-(4-(A-Acetyl-3-(7-(difluoromethyl)-6-(1-methyl-1H-pyrazol-4-yl)-3,4-dihydroquinolin-1(2H)-yl)-4,5,6,7-tetrahydro-1H-pyrazolo[4,3-c]pyridin-1-yl)piperidin-1-yl)acetamido)hexyl)amino)-2-methyl-N-(5-methylthiazol-2-yl)benzamide]	D (degradation activity < 30%)
